Experiments:
Estrogen receptor [1] = molecular target: T1, Estrogen receptor (Homo sapiens, UniProt P03372); experiment: Antagonist activity at human Gal4-ERalpha assessed as inhibition of 17beta-estradiol-induced effect by reporter gene assay
T1 sequence (P03372 whole entry): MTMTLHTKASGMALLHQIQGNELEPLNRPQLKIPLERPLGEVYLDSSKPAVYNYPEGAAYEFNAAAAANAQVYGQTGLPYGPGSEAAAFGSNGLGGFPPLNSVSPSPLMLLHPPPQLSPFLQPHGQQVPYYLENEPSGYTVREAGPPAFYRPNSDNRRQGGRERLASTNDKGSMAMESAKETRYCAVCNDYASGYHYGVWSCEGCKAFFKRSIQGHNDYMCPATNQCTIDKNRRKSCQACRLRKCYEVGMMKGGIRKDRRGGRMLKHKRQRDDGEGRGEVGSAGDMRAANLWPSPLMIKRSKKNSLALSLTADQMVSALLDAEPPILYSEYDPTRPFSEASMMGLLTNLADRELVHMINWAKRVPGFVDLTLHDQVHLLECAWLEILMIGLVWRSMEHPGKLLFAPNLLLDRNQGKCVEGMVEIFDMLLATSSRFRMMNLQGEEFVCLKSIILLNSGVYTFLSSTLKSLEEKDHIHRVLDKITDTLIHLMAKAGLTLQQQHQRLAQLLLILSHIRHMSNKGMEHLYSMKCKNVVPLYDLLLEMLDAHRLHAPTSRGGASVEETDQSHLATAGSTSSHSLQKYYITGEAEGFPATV

Androgen receptor = molecular target: T2, Androgen receptor (Homo sapiens, UniProt P10275); experiment: Antagonist activity at human pSG5-AR assessed as inhibition of dihydrotestosterone-induced effect by reporter gene assay
T2 sequence (P10275 whole entry): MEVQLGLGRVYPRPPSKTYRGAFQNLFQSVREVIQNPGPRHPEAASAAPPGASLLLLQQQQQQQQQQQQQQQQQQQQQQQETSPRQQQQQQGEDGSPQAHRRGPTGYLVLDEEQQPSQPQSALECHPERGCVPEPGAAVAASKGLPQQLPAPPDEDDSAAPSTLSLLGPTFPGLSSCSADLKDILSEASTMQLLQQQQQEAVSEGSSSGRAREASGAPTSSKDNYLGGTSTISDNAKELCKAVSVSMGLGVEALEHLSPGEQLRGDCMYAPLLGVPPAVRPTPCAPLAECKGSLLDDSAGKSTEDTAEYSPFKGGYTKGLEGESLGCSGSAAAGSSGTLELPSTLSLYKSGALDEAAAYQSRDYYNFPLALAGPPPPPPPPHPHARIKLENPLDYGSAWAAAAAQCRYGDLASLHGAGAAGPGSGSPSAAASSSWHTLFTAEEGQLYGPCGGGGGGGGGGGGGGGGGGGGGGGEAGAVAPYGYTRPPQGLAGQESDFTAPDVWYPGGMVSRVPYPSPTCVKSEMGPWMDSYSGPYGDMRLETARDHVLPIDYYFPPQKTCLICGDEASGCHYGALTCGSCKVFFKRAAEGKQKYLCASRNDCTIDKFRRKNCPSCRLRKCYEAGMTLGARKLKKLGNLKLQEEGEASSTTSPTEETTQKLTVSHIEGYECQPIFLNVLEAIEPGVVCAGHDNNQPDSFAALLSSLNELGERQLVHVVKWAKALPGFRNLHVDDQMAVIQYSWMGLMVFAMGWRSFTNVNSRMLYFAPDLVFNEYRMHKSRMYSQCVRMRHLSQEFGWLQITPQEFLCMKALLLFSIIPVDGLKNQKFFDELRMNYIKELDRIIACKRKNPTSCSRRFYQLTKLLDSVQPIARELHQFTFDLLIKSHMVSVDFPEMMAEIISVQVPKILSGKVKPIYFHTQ

Estrogen receptor beta [2] = molecular target: T3, Estrogen receptor beta (Homo sapiens, UniProt Q92731); experiment: Antagonist activity at human Gal4-ERbeta assessed as inhibition of 17beta-estradiol-induced effect by reporter gene assay
Estrogen receptor beta [3] = molecular target: T3, Estrogen receptor beta; experiment: Agonist activity at human Gal4-ERbeta by reporter gene assay
Estrogen receptor [4] = molecular target: T1, Estrogen receptor; experiment: Agonist activity at human Gal4-ERalpha by reporter gene assay
[5] = molecular target: T4, Estrogen receptor (Homo sapiens) (UniProt P03372); experiment: Agonist activity at human Gal4-ERalpha at 10 uM by reporter gene assay relative to 17beta-estradiol
T4 sequence (whole entry): T1 sequence (P03372 whole entry)

[6] = molecular target: T4, Estrogen receptor (Homo sapiens); settings: at 3 µM
Description: Antagonist activity at human Gal4-ERalpha assessed as inhibition of 17beta-estradiol-induced effect at 3 uM by reporter gene assay

Estrogen receptor beta [7] = molecular target: T3, Estrogen receptor beta; settings: at 3 µM
Description: Antagonist activity at human Gal4-ERbeta assessed as inhibition of 17beta-estradiol-induced effect at 3 uM by reporter gene assay

T3 sequence (Q92731 whole entry, the tested form may be a part): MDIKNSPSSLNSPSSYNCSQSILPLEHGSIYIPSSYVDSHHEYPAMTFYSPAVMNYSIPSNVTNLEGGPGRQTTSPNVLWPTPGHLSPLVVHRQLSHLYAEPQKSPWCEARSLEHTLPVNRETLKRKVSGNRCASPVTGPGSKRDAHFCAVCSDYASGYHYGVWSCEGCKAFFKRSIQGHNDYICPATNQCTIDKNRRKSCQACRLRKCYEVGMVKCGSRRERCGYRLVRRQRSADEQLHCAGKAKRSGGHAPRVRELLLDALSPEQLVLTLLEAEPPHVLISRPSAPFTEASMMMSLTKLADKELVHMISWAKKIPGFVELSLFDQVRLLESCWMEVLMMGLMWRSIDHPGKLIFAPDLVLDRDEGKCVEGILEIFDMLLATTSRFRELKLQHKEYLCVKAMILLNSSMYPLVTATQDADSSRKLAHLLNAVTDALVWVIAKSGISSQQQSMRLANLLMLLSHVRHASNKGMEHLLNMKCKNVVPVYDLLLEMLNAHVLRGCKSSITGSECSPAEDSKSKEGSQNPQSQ

| SMILES | IC50 (Estrogen receptor [1]) | IC50 (Estrogen receptor beta [2]; read-out: IC50) | EC50 (Estrogen receptor beta [3]) | EC50 (Estrogen receptor [4]) | further results |
| --- | --- | --- | --- | --- | --- |
| CC[Si](CC)(c1ccc(O)c(C)c1)c1ccc(O)c(C)c1 | 72 nM | 800 nM | Not Active | Not Active | IC50 (Androgen receptor): 1900 nM |
| CCC(CC)(c1ccc(O)c(C)c1)c1ccc(O)c(C)c1 | 25 nM | 260 nM |  | Not Active | IC50 (Androgen receptor): 4500 nM |
| CCC(CC)(c1ccc(N)c(C)c1)c1ccc(O)c(C)c1 | 98 nM | 43 nM | Not Active | Not Active | IC50 (Androgen receptor): 5400 nM |
| CCc1cc(C(CC)(CC)c2ccc(O)c(CC)c2)ccc1O | 230 nM | 1300 nM | Not Active | Not Active |  |
| CCCC(CCC)(c1ccc(O)cc1)c1ccc(O)cc1 | 99 nM | 2200 nM |  | Not Active |  |
| CCC(CC)(c1ccc(O)cc1)c1ccc(O)cc1 | 86 nM | 93 nM |  | Not Active |  |
| CCCc1cc(C(CC)(CC)c2ccc(O)c(CCC)c2)ccc1O |  |  | Not Active | Not Active |  |
| CCCC(CCC)(c1ccc(O)c(CC)c1)c1ccc(O)c(CC)c1 | 490 nM | 2600 nM | Not Active | Not Active |  |
| Cc1cc(Cc2ccc(O)c(C)c2)ccc1O |  |  |  |  | IC50 (Estrogen receptor beta [2]): Not Active; EC50 (Estrogen receptor beta [3]; read-out: EC50): 5500 nM; Activity [5]: 23%; inhibition [6]: 26% |
| CCCCC(CCCC)(c1ccc(O)c(CCC)c1)c1ccc(O)c(CCC)c1 |  |  | Not Active | Not Active |  |
| CCCC(CCC)(c1ccc(O)c(C)c1)c1ccc(O)c(C)c1 | 4.9 nM | 140 nM | Not Active | Not Active | IC50 (Androgen receptor): 25000 nM |
| Oc1ccc(C2(c3ccc(O)cc3)CCCCC2)cc1 | 520 nM | 560 nM | Not Active | Not Active |  |
| CCCCC(CCCC)(c1ccc(O)c(C)c1)c1ccc(O)c(C)c1 | 14 nM | 150 nM | Not Active | Not Active |  |
| CCCC[Si](CCCC)(c1ccc(O)c(C)c1)c1ccc(O)c(C)c1 |  |  | Not Active | Not Active | IC50 (Androgen receptor): 8200 nM; IC50 (Estrogen receptor beta [2]): Not Active |
| CCC(CC)(c1cc(C)c(O)c(C)c1)c1cc(C)c(O)c(C)c1 | 74 nM | 300 nM | Not Active | Not Active |  |
| CCCCC(CCCC)(c1ccc(O)cc1)c1ccc(O)cc1 | 79 nM | 180 nM | Not Active | Not Active |  |
| CCCCC(CCCC)(c1ccc(O)c(CC)c1)c1ccc(O)c(CC)c1 | 2900 nM | 4500 nM | Not Active | Not Active |  |
| Oc1ccc(Cc2ccc(O)cc2)cc1 |  |  |  |  | inhibition (Estrogen receptor beta [7]): 24%; EC50 (Estrogen receptor beta [3]; read-out: EC50): 1900 nM; inhibition [6]: 35%; EC50 (Estrogen receptor [4]; read-out: EC50): 910 nM |
| Cc1cc(C2(c3ccc(O)c(C)c3)CCCC2)ccc1O | 84 nM | 770 nM | Not Active | Not Active |  |
| Cc1cc(C(C)(C)c2ccc(O)cc2)ccc1O |  |  |  |  | inhibition (Estrogen receptor beta [7]): 26%; Activity [5]: 26%; inhibition [6]: 48% |
| CC(C)(c1ccc(O)cc1)c1ccc(O)cc1 [BISPHENOL A] |  |  |  |  | IC50 (Androgen receptor): 5900 nM; inhibition (Estrogen receptor beta [7]): 25%; Activity [5]: 33%; inhibition [6]: 38% |
| Cc1cc(C2(c3ccc(O)c(C)c3)CCCCC2)ccc1O | 230 nM | 790 nM | Not Active | Not Active |  |
| Oc1ccc(C2(c3ccc(O)cc3)CCCC2)cc1 | 170 nM | 270 nM | Not Active | Not Active |  |
| CCC(CC)(c1ccc(O)cc1)c1ccc(O)c(C)c1 | 110 nM | 380 nM |  | Not Active |  |
| Cc1cc(C(C)(C)c2ccc(O)c(C)c2)ccc1O |  |  |  |  | Activity [5]: 31% |
| CCCc1cc(C(CCC)(CCC)c2ccc(O)c(CCC)c2)ccc1O |  |  | Not Active | Not Active |  |
